{"source": "patent US20090263429A1", "about": "“Method of Preparing a Hydrogel” (The University of Manchester, priority 2005, published 2009)", "assay": "96 well screen of Fmoc/Cbz-amino acid and dipeptide with thermolysin (gelation)", "type": "physicochemical", "conditions": "Fmoc-G and GG with thermolysin, 20 mM Fmoc-aa, 48 hours at room temperature", "method": "Fmoc-amino acids or Cbz-amino acids with dipeptides were weighed in to a clean universal to the different concentrations and the various ratios required. They were then suspended in deionised water, and solubilized by the addition of 0.5M NaOH to adjust the pH to 13. The particle size was reduced through the reduction of larger clumps by gentle manipulation with a spatula, and the subsequent immersion in a sonication bath. […] The pH was reduced by the addition dropwise from a 200 μl pipette of 0.1 M HCl with gentle vortexing until the value reached 7. […] Upon acquisition of a neutral pH, de-ionised water was added up to the required volume.\nThe enzyme, thermolysin, was provided in the form of a lyphophilized powder. This was weighed to a sterile universal, and then reconstituted in distilled water to a concentration of 1 mg/ml. In order to ensure the enzyme was fully solubilised, the solution was vortexed for thirty seconds, and stored at room temperature within a sealed container and used within thirty minutes. […]\nA 96 well format was developed to screen large numbers of combinations of reactant ratios and concentrations. […] Relative quantities of these were added. […] Sufficient quantities of distilled water were added to make up to a final volume of […]. […] Results of the reactions were measured by HPLC, and the degree of conversion of Fmoc/Cbz-amino acid to Fmoc/Cbz-tripeptide was calculated."}
{"substance": "Fmoc-triGlycine [Fmoc-GGG]", "values": [{"measurement": "gel formation", "result": "doesn't form a gel"}]}
